{"source": "patent US8735620B2", "about": "“Processes for preparing (E)-styrylbenzylsulfone compounds and uses thereof for treating proliferative disorders” (priority 2008, dated 2014)", "key": {"OV-CAR-3": {"test_system": "OV-CAR-3", "assay": "Tumor cell killing, OV-CAR-3", "type": "cell-based, human", "settings": "OV-CAR-3, OVARIAN; read-out: Tumor cell killing (IC50) concentration", "method": "(§1) Tissue Culture and Reagents: Paclitaxel was purchased from Sigma. Cell lines were purchased from ATCC. Cell lines were routinely grown in DMEM or RPM1 (CellGro) supplemented with 10% fetal bovine serum (Atlas) and 1 unit/mL penicillin-streptomycin (Gibco).\n(§2) A number of tumor cell lines were tested using a dose response end point assay system. The cells were grown in either DMEM or RPMI supplemented with 10% fetal bovine serum and 1 unit/mL Penicillin-Streptomycin solution. The tumor cells were plated into 6 well dishes at a cell density of 1.0×10^5 cells/mL/well and compounds were added 24 h later at various concentrations. Cell counts were determined from duplicate wells after 96 h of treatment. The total number of viable cells was determined by trypan blue exclusion."}, "A549": {"test_system": "A549", "assay": "Tumor cell killing, A549", "type": "cell-based, human", "settings": "A549, NSCLC; read-out: Tumor cell killing (IC50) concentration", "method": "as §1, §2"}, "MCF-7": {"test_system": "MCF-7", "assay": "Tumor cell killing, MCF-7", "type": "cell-based, human", "settings": "MCF-7, BREAST (ER+); read-out: Tumor cell killing (IC50) concentration", "method": "as §1, §2"}, "CEM": {"test_system": "CEM", "assay": "Tumor cell killing, CEM", "type": "cell-based, human", "settings": "read-out: Tumor cell killing (IC50) concentration"}, "RF48": {"test_system": "RF48", "assay": "Tumor cell killing, RF48", "type": "cell-based, human", "settings": "RF48, GASTRIC; read-out: Tumor cell killing (IC50) concentration", "method": "as §1, §2"}, "MOLT-4": {"test_system": "MOLT-4", "assay": "Tumor cell killing, MOLT-4", "type": "cell-based, human", "settings": "MOLT-4, T-lymphoblastic: ALL; read-out: Tumor cell killing (IC50) concentration", "method": "as §2"}, "COLO-205": {"test_system": "COLO-205", "assay": "Tumor cell killing, COLO-205", "type": "cell-based, human", "settings": "COLO-205, COLO-RECTAL; read-out: Tumor cell killing (IC50) concentration", "method": "as §1, §2"}, "Raji": {"test_system": "Raji", "assay": "Tumor cell killing, Raji", "type": "cell-based, human", "settings": "Burkitt's Lymphoma (B-cell), read-out: Tumor cell killing (IC50) concentration", "method": "as §2"}, "U87": {"test_system": "U87", "assay": "Tumor cell killing, U87", "type": "cell-based, human", "settings": "U87, GLIOBLASTOMA; read-out: Tumor cell killing (IC50) concentration", "method": "as §1, §2"}, "MIA-PaCa2": {"test_system": "MIA-PaCa2", "assay": "Tumor cell killing, MIA-PaCa2", "type": "cell-based, human", "settings": "MIA-PaCa2, PANCREATIC; read-out: Tumor cell killing (IC50) concentration", "method": "as §1, §2"}, "[1]": {"test_system": "H157 (human lung tumor cell line)", "assay": "Cytotoxicity assay (trypan blue exclusion, 96 h), H157", "type": "cell-based", "method": "as §1, §2"}, "MES-SA/DX5": {"test_system": "MES-SA/DX5", "assay": "Tumor cell killing, MES-SA/DX5 (multidrug resistant subline)", "type": "cell-based, human", "settings": "for IC50: *MESSA/DX5, RESISTANT SARCOMA (multi-drug resistant), read-out: Tumor cell killing (IC50) concentration", "experimental": "A. 6aa inhibits the growth of parental (MES-SA) and Paclitaxel resistant (MES-SA/DX5) cell lines with equal efficiency. The parental uterine sarcoma cells and the MDR positive (MES-SA/DX5) cells were plated into 6 well dishes and treated with various concentrations of 6aa and Paclitaxel for 96 h. The number of viable cells from duplicate plates was determined by trypan blue exclusion. B. Soft Agar Assays. MIA-PaCa-2 cells (1.0×10^5) were plated in soft agar containing various concentrations of each compound in triplicates. After three weeks of growth, the plates were stained for 48 h using 0.05% nitroblue tetrazolium solution. Representative plates were photographed using an Olympus stereoscope mounted with a Sony digital camera system (DKC5000, Sony Inc). Tissue Culture and Reagents: […] Cell lines were purchased from ATCC. Cell lines were routinely grown in DMEM or RPM1 (CellGro) supplemented with 10% fetal bovine serum (Atlas) and 1 unit/mL penicillin-streptomycin (Gibco). A number of tumor cell lines were tested using a dose response end point assay system. The cells were grown in either DMEM or RPMI supplemented with 10% fetal bovine serum and 1 unit/mL Penicillin-Streptomycin solution. […] Cell counts were determined from duplicate wells after 96 h of treatment. The total number of viable cells was determined by trypan blue exclusion."}, "AGS": {"test_system": "AGS", "assay": "Tumor cell killing, AGS", "type": "cell-based, human", "settings": "GASTRIC, read-out: Tumor cell killing (IC50) concentration", "method": "as §1, §2"}, "HCT-15": {"test_system": "HCT-15", "assay": "Tumor cell killing, HCT-15", "type": "cell-based, human", "settings": "HCT-15, COLO-RECTAL; read-out: Tumor cell killing (IC50) concentration", "method": "as §1, §2"}, "[2]": {"test_system": "BT20 (human breast tumor cell line)", "assay": "Cytotoxicity assay (trypan blue exclusion, 96 h), BT20", "type": "cell-based", "settings": "BT20, 96 h treatment", "method": "as §1, §2"}, "N417": {"test_system": "N417", "assay": "Tumor cell killing, N417", "type": "cell-based, human", "settings": "N417, SCLC; read-out: Tumor cell killing (IC50) concentration", "method": "as §1, §2"}, "H187": {"test_system": "H187", "assay": "Tumor cell killing, H187", "type": "cell-based, human", "settings": "H187, SCLC; read-out: Tumor cell killing (IC50) concentration", "method": "as §1, §2"}, "CEM/C2": {"test_system": "CEM/C2", "assay": "Tumor cell killing, CEM/C2 (camptothecin-resistant subline)", "type": "cell-based, human", "settings": "*CEM/C2, RESISTANT LEUKEMIC (multi-drug resistant); read-out: Tumor cell killing (IC50) concentration", "method": "as §2"}, "Namalwa": {"test_system": "Namalwa", "assay": "Tumor cell killing, Namalwa", "type": "cell-based, human", "settings": "Burkitt's Lymphoma (B-cell), read-out: Tumor cell killing (IC50) concentration", "method": "as §2"}, "[3]": {"test_system": "mantle cell lymphoma cell lines", "settings": "Park et al Oncogene 2007; cited from earlier work"}, "T47D": {"test_system": "T47D", "assay": "Tumor cell killing, T47D", "type": "cell-based, human", "settings": "BREAST (ER+), read-out: Tumor cell killing (IC50) concentration", "method": "as §1, §2"}, "Daudi": {"test_system": "Daudi", "assay": "Tumor cell killing, Daudi", "type": "cell-based, human", "settings": "Burkitt's Lymphoma (B-cell), read-out: Tumor cell killing (IC50) concentration", "method": "as §2"}, "SK-MEL-28": {"test_system": "SK-MEL-28", "assay": "Tumor cell killing, SK-MEL-28", "type": "cell-based, human", "settings": "SK-MEL-28, MELANOMA; read-out: Tumor cell killing (IC50) concentration", "method": "as §1, §2"}, "PC-3": {"test_system": "PC-3", "assay": "Tumor cell killing, PC-3", "type": "cell-based, human", "settings": "PC-3, PROSTATE (AR+); read-out: Tumor cell killing (IC50) concentration", "method": "as §1, §2"}, "[4]": {"test_system": "panel of 60 human cancer cell-lines", "assay": "NCI Developmental Therapeutics Program panel of 60 human cancer cell-lines", "type": "cell-based", "settings": "at nanomolar concentrations, including drug-resistant cell-lines"}, "[5]": {"settings": "LEUKEMIC (second listing, r39, parental of CEM/C2)"}, "[6]": {"settings": "H157, 96 h treatment, read-out: H157 IC50"}, "[7]": {"settings": "H157, NSCLC, Table 2, read-out: Tumor cell killing (IC50) concentration"}}, "note": "Read-outs that look alike come from different tables or passages of the source."}
{"smiles": "COc1cc(OC)c(/C=C/S(=O)(=O)Cc2ccc(OC)c(O)c2)c(OC)c1", "note": "[6aa, (E)-2,4,6-Trimethoxystyryl-3-Hydroxy-4-Methoxybenzyl Sulfone]", "values": [{"measurement": "IC50", "setting": "OV-CAR-3", "value": 6, "unit": "nM"}, {"measurement": "IC50", "setting": "A549", "value": 10, "unit": "nM"}, {"measurement": "IC50", "setting": "MCF-7", "value": 4, "unit": "nM"}, {"measurement": "IC50", "setting": "CEM; LEUKEMIC (first listing, r26)", "value": 9, "unit": "nM"}, {"measurement": "IC50", "setting": "CEM; [5]", "value": 10, "unit": "nM"}, {"measurement": "IC50", "setting": "RF48", "value": 5, "unit": "nM"}, {"measurement": "IC50", "setting": "MOLT-4", "value": 5, "unit": "nM"}, {"measurement": "IC50", "setting": "COLO-205", "value": 9, "unit": "nM"}, {"measurement": "IC50", "setting": "Raji", "value": 4, "unit": "nM"}, {"measurement": "IC50", "setting": "U87", "value": 7, "unit": "nM"}, {"measurement": "IC50", "setting": "MIA-PaCa2", "value": 4, "unit": "nM"}, {"measurement": "IC50", "setting": "[1]; [6]", "value": 4, "unit": "nM"}, {"measurement": "IC50", "setting": "[1]; [7]", "value": 7, "unit": "nM"}, {"measurement": "IC50", "setting": "MES-SA/DX5", "value": 5, "unit": "nM"}, {"measurement": "sensitivity of parental and MDR positive cell lines to cell killing activity", "setting": "MES-SA/DX5; MES-SA and MES-SA/DX5", "value": "equally sensitive"}, {"measurement": "IC50", "setting": "AGS", "value": 7, "unit": "nM"}, {"measurement": "IC50", "setting": "HCT-15", "value": 8, "unit": "nM"}, {"measurement": "IC50", "setting": "[2]", "value": 10, "unit": "nM"}, {"measurement": "IC50", "setting": "N417", "value": 5, "unit": "nM"}, {"measurement": "IC50", "setting": "H187", "value": 7, "unit": "nM"}, {"measurement": "IC50", "setting": "CEM/C2", "value": 10, "unit": "nM"}, {"measurement": "IC50", "setting": "Namalwa", "value": 6, "unit": "nM"}, {"measurement": "effect on mantle cell lymphoma cell lines", "setting": "[3]", "value": "altered the growth and cell cycle status"}, {"measurement": "IC50", "setting": "T47D", "value": 6, "unit": "nM"}, {"measurement": "IC50", "setting": "Daudi", "value": 7, "unit": "nM"}, {"measurement": "IC50", "setting": "SK-MEL-28", "value": 7, "unit": "nM"}, {"measurement": "IC50", "setting": "PC-3", "value": 8, "unit": "nM"}, {"measurement": "growth inhibition of NCI 60 cell-line panel", "setting": "[4]", "value": "inhibited the growth of all of the tested cell lines"}]}
{"smiles": "COc1ccc(CS(=O)(=O)/C=C/c2c(OC)cc(OC)cc2OC)cc1", "note": "[6s, (E)-2,4,6-Trimethoxystyryl-4-Methoxybenzyl sulfone]", "values": [{"measurement": "IC50", "setting": "OV-CAR-3", "value": 8, "unit": "nM"}, {"measurement": "IC50", "setting": "A549", "value": 20, "unit": "nM"}, {"measurement": "IC50", "setting": "MCF-7", "value": 3, "unit": "nM"}, {"measurement": "IC50", "setting": "CEM; LEUKEMIC (first listing, r26)", "value": 30, "unit": "nM"}, {"measurement": "IC50", "setting": "CEM; [5]", "value": 30, "unit": "nM"}, {"measurement": "IC50", "setting": "RF48", "value": 10, "unit": "nM"}, {"measurement": "IC50", "setting": "MOLT-4", "value": 9, "unit": "nM"}, {"measurement": "IC50", "setting": "COLO-205", "value": 15, "unit": "nM"}, {"measurement": "IC50", "setting": "Raji", "value": 9, "unit": "nM"}, {"measurement": "IC50", "setting": "U87", "value": 40, "unit": "nM"}, {"measurement": "IC50", "setting": "MIA-PaCa2", "value": 8, "unit": "nM"}, {"measurement": "IC50", "setting": "[1]; [6]", "value": 30, "unit": "nM"}, {"measurement": "IC50", "setting": "[1]; [7]", "value": 30, "unit": "nM"}, {"measurement": "IC50", "setting": "MES-SA/DX5", "value": 10, "unit": "nM"}, {"measurement": "IC50", "setting": "AGS", "value": 20, "unit": "nM"}, {"measurement": "IC50", "setting": "HCT-15", "value": 20, "unit": "nM"}, {"measurement": "IC50", "setting": "[2]", "value": 20, "unit": "nM"}, {"measurement": "IC50", "setting": "N417", "value": 8, "unit": "nM"}, {"measurement": "IC50", "setting": "H187", "value": 15, "unit": "nM"}, {"measurement": "IC50", "setting": "CEM/C2", "value": 10, "unit": "nM"}, {"measurement": "IC50", "setting": "Namalwa", "value": 15, "unit": "nM"}, {"measurement": "effect on mantle cell lymphoma cell lines", "setting": "[3]", "value": "altered the growth and cell cycle status"}, {"measurement": "IC50", "setting": "T47D", "value": 25, "unit": "nM"}, {"measurement": "IC50", "setting": "Daudi", "value": 8, "unit": "nM"}, {"measurement": "IC50", "setting": "SK-MEL-28", "value": 40, "unit": "nM"}, {"measurement": "IC50", "setting": "PC-3", "value": 30, "unit": "nM"}, {"measurement": "growth inhibition of NCI 60 cell-line panel", "setting": "[4]", "value": "inhibited the growth of all of the tested cell lines"}]}
